2 molecules from patent publication US7816389B2, “Organic compounds” (Nabriva Therapeutics Forschungs GmbH, priority 2006, dated 2010) can be followed below.

What all share (type): cell-based
Assay [1] relates to Staphylococcus aureus (MSSA) ATCC10390 B6. Put plainly: MIC determination according to CLSI. The following applies: ATCC10390, strain B6. From the text: (§1) For example, the compounds of the present invention show antimicrobial, e.g. antibacterial, activity against gram positive bacteria, such as coagulase-positive and coagulase-negative Staphylococci, e.g. Staphylococcus aureus, Styphylococcus epidermis, Staphylococcus haemolyticus, Streptococci, e.g. Streptococcus pyogenes, Streptococcus pneumoniae, Streptococcus agalacticae, Enterococci, e.g. Enterococcus faecium and Moraxellaceae, e.g. Moraxella catarrhalis, Pasteurellaceae, e.g. Haemophilus influenzae, as well as against Mycoplasmactaceae, Chlamydiaceae, e.g. Chlamydia trachomatis, Chlamydia pneumoniae and obligatory anaerobes, e.g. Bacteroides fragilis, Clostridium difficile; in vitro in the Agar Dilution Test or Microdilution Test according to the Climical and Laboratory Standards Institute (CLSI, former National Commitee for Clinical Laboratory Standards (NCCLS) 2006, Document M7-A7 Vol. 26, No. 2: “Methods for dilution Antimicrobial Susceptibility Tests for Bacteria that Grow Aerobically—Seventh Edition, Approved Standard”; and in the in vitro determination of the antibacterial activity against anaerobic bacteria according to National Committee for Clinical Laboratory Standards (NCCLS) VOL. 24, No. 2, M11-A5, Methods for Antimicrobal Susceptibility Testing of Anaerobic Bacteria; Approved Standard; Sixth Edition (2004) and in vivo in the septicaemic mouse model against Staphylococcus aureus.
(§2) The antibacterial activity expressed as minimal inhibitory concentration (MIC) was determined according to the approved standard reference recommendations of CLSI (former NCCLS).

The subject of assay [2] is Staphylococcus aureus (MSSA) ATCC29213 B7. Put plainly: MIC determination according to CLSI. To be noted: ATCC29213, strain B7.
Text: as §1, §2

For assay [3], the system named is Escherichia coli ATCC25922 B1. Put plainly: MIC determination according to CLSI. The following applies: ATCC25922, strain B1.
Text: as §1, §2

Assay [4] relates to Moraxella catarrhalis ATCC43618 B407. Put plainly: MIC determination according to CLSI. The following applies: ATCC43618, strain B407.
Text: as §1, §2

Assay [5] concerns Enterococcus faecalis ATCC51299 B5. Put plainly: MIC determination according to CLSI. The following applies: ATCC51299, strain B5.
Text: as §1, §2

The test system of assay [6] is Streptococcus pneumoniae ATCC49619 B11. Put plainly: MIC determination according to CLSI. To be noted: ATCC49619, strain B11.
Text: as §1, §2

In assay [7] the test system is Enterococcus faecalis ATCC29212 B4. Put plainly: MIC determination according to CLSI. To be noted: ATCC29212, strain B4.
Text: as §1, §2

The test system of assay [8] is Staphylococcus aureus, Enterococcus faecalis, Streptococcus pneumoniae, Moraxelia catarrhalis and Escherichia coli. Put plainly: MIC determination according to CLSI, panel of pathogens. The procedure:
as §2

The structures appear in SMILES notation. Converted amounts (≈) assume the structure as drawn.

With `C=C[C@]1(C)C[C@@H](OC(=O)CSc2cccc(CO)c2)[C@]2(C)C(C)CCC3(CCC(=O)C32)[C@@H](C)[C@@H]1O` (stereo partly shown) [Example 1, 14-O-[(3-Hydroxymethyl-phenylsulfanyl)-acetyl]-mutilin], the minimum inhibitory concentration (MIC) (usually the lowest concentration that inhibits growth of the organism) is at most 0.0125 µg/mL in assay [1]; at most 0.0125 µg/mL in assay [2]; 12.8 µg/mL (≈ 25.6 µM) in assay [3]; at most 0.0125 µg/mL in assay [4]; 6.4 µg/mL (≈ 12.8 µM) in assay [5]; 0.01 µg/mL (≈ 0.02 µM) in assay [6]. The MIC in assay [7] was 6.4 µg/mL (≈ 12.8 µM). Moreover, the “antibacterial activity (in vitro)” value in assay [8] (against at least one of the clinical relevant bacterial pathogens) is reported as “very good activity”. Further, the “factor by which MICs are lower than the MICs of Example 2” value in assay [8] (against at least one of the strains shown in Table 1) is at least 2.
For `C=C[C@]1(C)C[C@@H](OC(=O)CSc2ccc(C)cc2)[C@]2(C)C(C)CCC3(CCC(=O)C32)[C@@H](C)[C@@H]1O` (stereo partly shown) [Example 2, 14-O-[(4-Methyl-phenylsulfanyl)-acetyl]-mutilin, reference compound], the minimum inhibitory concentration (MIC) in assay [1] is 0.025 µg/mL (≈ 0.0516 µM); in assay [2], 0.025 µg/mL (≈ 0.0516 µM); in assay [3] it was over 25.6 µg/mL; in assay [4] it was at most 0.0125 µg/mL; in assay [5], over 25.6 µg/mL; in assay [6], 0.16 µg/mL (≈ 0.33 µM). In assay [7], this molecule gave a minimum inhibitory concentration (MIC) of over 25.6 µg/mL.
